Experimental data from patent US10286032B2, “Pro-angiogenic fragments of prominin-1 and uses thereof” (Children's Medical Center Corporation, priority 2010, dated 2019).

How the values were obtained:
endothelial cells [1] = experiment: I125-VEGF binding to endothelial cells in the presence of peptide; assay type: cell-based
Experimental: (§1) 10000 cells were incubated in binding buffer containing 20 mM Hepes, 0.1% BSA and I^125-VEGF (12 ng/ml) for 3 h on ice.
(§2) In order to characterize the effect of the peptides on VEGF binding to endothelial and melanoma cells, the cells were incubated with various peptides (720 μg/ml) in the presence of I^125-VEGF (12 ng/ml) (FIG. 2). Peptide #237 increased VEGF binding to endothelial as well to melanoma cells. 10000 cells were incubated in binding buffer containing 20 mM Hepes, 0.1% BSA and I^125-VEGF (12 ng/ml) for 3 h on ice. Following 3 washings, the radioactive levels were determined by gamma counter. An increase of more than 25 times in I^125-VEGF binding was observed when peptide #237 was added to both kinds of cells. The other prominin-1 peptides examined had no effect on VEGF binding to endothelial cells.
Each of these peptides were tested for VEGF binding to endothelial cells and compared to peptide #237 at varying dilutions. The results are indicated herein in FIG. 7.
The inventors also investigated which amino acid residues in peptide #237 are important for the various angiogenic and VEGF related binding activity described herein. To achieve this, the inventors singly changed each of the 12 amino acid residues in peptide #237 to alanine and performed experiments examining the effect of the alanine substitution at various positions on endothelial cell binding to VEGF. A total of 12 alanine substituted peptides were made and tested: Ala-1, Ala-2, Ala-3, Ala-4, Ala-5, Ala-6, Ala-7, Ala-8, Ala-9, Ala-10, Ala-11, Ala-12, (SEQ. ID. NOS. 38-41, 3, 11, 42-47) wherein the number indicate the position where the alanine substitution occurred. In addition, a “flip #237” peptide having the sequence AAVVTTTQRQVRD (SEQ. ID. NO. 22) was also made and studied.

ear wound = experiment: ear punch wound healing model; assay type: in vivo, mouse; conditions: for wound closure versus control (peptide #237): intraperitoneal treatment, C57BL mouse
[2] = test system: ischemic hind limb blood flow; experiment: hind limb ischemia model, intraperitoneal administration (Example 12); assay type: in vivo, mouse; conditions: for limb perfusion: intraperitoneally immediately following femoral artery occlusion, within three to six days
Experimental: Mice were ligated in one of their femoral arteries (the […]) to simulate hind limb ischemia. The blood flow was analyzed by machine for each mouse before and immediately after the procedure to evaluate if the femoral was ligated properly. Blood flow was compared with the non-operated leg by a laser Doppler imager. […] The ischemic limb is seen as the limb on left side in the laser Doppler images.
Representative evaluation of the ischemic (left side of each image) and non-ischemic (right side of each image) hind limbs, immediately after, and on days 4 and 14 after surgery. In FIG. 11, the white areas indicate normal perfusion with normal blood circulation and black areas indicate no blood flow in the ischemic left hind limb. […] Dark shaded areas within the white areas located at the distal ends of the limbs indicate […].
The blood flow of the ischemic hind limb is expressed as the ratio between the perfusion of the ischemic limb and the uninjured limb in FIG. 12.

[3] = test system: cornea neovascularization; experiment: corneal micropocket assay with VEGF pellet; assay type: in vivo, mouse; conditions: pellet 160 ng VEGF 165 + 1.3 ug #237; 5 days
Experimental: Vigorous vessel in-growth from the limbus at 5 days was recorded as a positive response.
In order to evaluate the modulating effect of peptide #237 on the angiogenesis process, a corneal micropocket assay was performed. Two kinds of pellets were created, both containing 160 ng carrier-free recombinant human VEGF 165 (R&D Systems, Minneapolis, Minn.), one of which contains 1.3 ug of #237 peptide. The pellets were implanted into micropockets created in the cornea of two groups of anesthetized mice (n=4). Through the use of standardized slow-release pellets, a predictable angiogenic response is generated over the course of 5 days and then quantified. The area of neovascularization was calculated as vessel area, which is calculated as the product of vessel length measured from the limbus and clock hours around the cornea, using the following equation: vessel area (mm^2)=[clock hours×vessel length (mm)×0.2 mm]. […] The in vivo experiment confirms that the peptide stimulates cell proliferation, and is therefore a good candidate to induce angiogenesis.

[4] = test system: ear wound neovascularization; experiment: ear wound neovascularization model; assay type: in vivo, nude mouse; conditions: matrigel containing 180 μg peptide daily for 5 days; 2.25 mm punch; versus plain matrigel
Experimental: Microvascular in-growth into damaged tissue is an essential component of the normal healing process. In fact, wound therapy is often aimed at promoting neovascularization. The model consists of wounding the dorsal aspect of the ear of a nude mouse. A circular punch was used to create a standardized wound on a nude mouse ear. Constant diameter of wound is given by the size of the punch (2.25 mm), and the ears were treated daily with plain matrigel (FIG. 6A) or matrigel containing peptide #237 (180 μg) (FIG. 6B) for 5 days. […] In order to evaluate the wound neovascularization, the mice were inoculated by dextran-FITC which specifically labeled the endothelial cells, immediately after anesthetizing them.

B16-F10 melanoma cells = experiment: I125-VEGF binding to melanoma cells in the presence of peptide; assay type: cell-based; conditions: peptide 720 μg/ml, I125-VEGF 12 ng/ml, 3 h on ice
Experimental: as §1, §2

endothelial cells [5] = experiment: Matrigel assay of endothelial cell migration in vivo (FACS of matrigel liberated cells); parameters: species or system C57bl mice; conditions: day 6; for endothelial cells among matrigel liberated cells (FACS, CD31): Matrigel with 500 ng VEGF, with or without 180 μg #237
Experimental: On day 6, animals were sacrificed and fluorescence-activated cell sorting (FACS) analysis was used for determination of the matrigel liberated cells. In order to distinguish the endothelial cells from hematopoietic cells, the cells were incubated with two antibodies CD31-PE and CD45-APC which are specific to endothelial cells and hematopoietic cells respectively.

[6] = test system: ischemic hind limb blood flow; experiment: hind limb ischemia model, local injection or pump (Example 11); assay type: in vivo, mouse; conditions: after 48 h
Experimental: FIG. 10A are laser doppler images showing the effects of direct injection of either saline or peptide #237 to the ischemic site (800 μg) in a mouse hind limb ischemia model. Mice were ligated in both of their femoral arteries to simulate hind limb ischemia. The blood flow in mice was analyzed by machine for each mouse before and immediately after the procedure to evaluate if the femoral was ligated properly. (Note that amino acid 12 of SEQ. ID. NO: 1 is alanine; this amino acid was substituted with […] in the Ala-12 substitution variant.)
FIG. 10B are laser doppler images showing the effects of injection by pumps of either the saline or peptide #237 to the ischemic site (800 μg) in a mouse hind limb ischemia model. Just the left femoral artery was ligated to simulate hind limb ischemia. Mice from group B were treated systemically by pumps that were implanted to the mouse's back one day prior to the procedure. […] The blood flow was analyzed by machine for each mouse before and immediately after the procedure to evaluate if the femoral was ligated properly. […]
The angiogenic effects of peptide #237 were investigated using the mouse hind limb ischemia model. […] The blood flow was analyzed by Laser Doppler perfusion imagery machine for each mouse before and immediately after the procedure to evaluate if the femoral was ligated properly. […]

Substance: DAVQRQTTTVVA [Ala-2]
- VEGF binding to endothelial cells over control levels (absence of any peptide) (endothelial cells [1]): promote VEGF binding to endothelial cells over control levels

Substance: DRAQRQTTTVVA [Ala-3]
- VEGF binding to endothelial cells over control levels (absence of any peptide) (endothelial cells [1]): promote VEGF binding to endothelial cells over control levels

Substance: DRVARQTTTVVA [Ala-4]
- VEGF binding to endothelial cells over control levels (absence of any peptide) (endothelial cells [1]): promote VEGF binding to endothelial cells over control levels

Substance: DRVQAQTTTVVA [Ala-5]
- VEGF binding to endothelial cells over control levels (absence of any peptide) (endothelial cells [1]): promote VEGF binding to endothelial cells over control levels
- ability of endothelial cells to bind VEGF compared to original #237 (endothelial cells [1]; alanine substitution screen): more than twice

Substance: DRVQMQTTTVVA [#237-M]
- wound closure versus control (peptide #237) (ear wound): significantly more wound closure
- VEGF binding to endothelial cells over control levels (absence of any peptide) (endothelial cells [1]): promote VEGF binding to endothelial cells over control levels

Substance: DRVQQQTTTVVA [#237-Q]
- wound closure versus control (peptide #237) (ear wound): significantly more wound closure
- VEGF binding to endothelial cells over control levels (absence of any peptide) (endothelial cells [1]): promote VEGF binding to endothelial cells over control levels

Substance: DRVQRATTTVVA [Ala-6]
- VEGF binding to endothelial cells over control levels (absence of any peptide) (endothelial cells [1]): promote VEGF binding to endothelial cells over control levels

Substance: DRVQRQATTVVA [Ala-7]
- VEGF binding to endothelial cells over control levels (absence of any peptide) (endothelial cells [1]): promote VEGF binding to endothelial cells over control levels

Substance: DRVQRQTTTVVA (listed as Homo sapiens) [#237]
- wound area versus untreated mice (ear wound; MATRIGEL containing peptide daily for 14 days, day 14, 1 mm wound): significantly smaller
- blood flow recovery compared to saline treated mice (laser Doppler images) ([2]; days 4 and 14 after surgery): increased blood flow recovery
- limb perfusion [2]: significantly improves limb perfusion
- VEGF binding to endothelial cells over control levels (absence of any peptide) (endothelial cells [1]): promote VEGF binding to endothelial cells over control levels
- increase in I125-VEGF binding (endothelial cells [1]; endothelial cells, peptide 720 μg/ml, I125-VEGF 12 ng/ml, 3 h on ice): more than 25 times
- increase in vessel density versus pellet without peptide [3]: 53%
- neovascularization around the ear wound site [4]: significantly increased the neovascularization
- increase in I125-VEGF binding (B16-F10 melanoma cells): more than 25 times
- endothelial cells relative to VEGF alone (endothelial cells [5]; 180 ug #237 added to the VEGF): six times more
- endothelial cells among matrigel liberated cells (FACS, CD31) (endothelial cells [5]): 0.42%
- recovery of the blood flow in the ischemic site ([6]; local injection to the ischemic site (800 ug)): complete recovery of the blood flow
- recovery of the blood flow in the ischemic site ([6]; slow release via pump 0.5 ug/hour): complete recovery of the blood flow

Substance: DRVQRQTTTVVG [Ala-12, glycine substitution at position 12, which is naturally alanine]
- VEGF binding to endothelial cells over control levels (absence of any peptide) (endothelial cells [1]): promote VEGF binding to endothelial cells over control levels

Substance: DRVQVQTTTVVA [#237-V]
- wound closure versus control (peptide #237) (ear wound): significantly more wound closure
- limb perfusion [2]: significantly improves limb perfusion
- VEGF binding to endothelial cells over control levels (absence of any peptide) (endothelial cells [1]): promote VEGF binding to endothelial cells over control levels

Substance: RVQRQTTTVVAG
- VEGF binding to endothelial cells over control levels (absence of any peptide) (endothelial cells [1]): promote VEGF binding to endothelial cells over control levels

Substance: VEGF
- endothelial cells among matrigel liberated cells (FACS, CD31) (endothelial cells [5]): 0.07%

Substance: VQRQTTTVVAGI
- VEGF binding to endothelial cells over control levels (absence of any peptide) (endothelial cells [1]): promote VEGF binding to endothelial cells over control levels
